Consider 18 molecules from paper PMC4657098, “A Review of the Updated Pharmacophore for the Alpha 5 GABA(A) Benzodiazepine Receptor Model” (International Journal of Medicinal Chemistry, 2015).

Common to all, as to design: expressed in transfected cells
For one assay, the target named is α2β3γ2 GABAA/BzR (Homo sapiens, UniProt P18507+P47869). In words: Competition binding to HEK cell membranes, α2β3γ2.
A further assay concerns the target α5β3γ2 GABAA/BzR (Homo sapiens, UniProt P18507+P31644). In words: Competition binding to HEK cell membranes, α5β3γ2.
The target of another assay is α3β3γ2 GABAA/BzR (Homo sapiens, UniProt P18507+P34903). In words: Competition binding to HEK cell membranes, α3β3γ2.
The next assay addresses α1β3γ2 GABAA/BzR (Homo sapiens, UniProt P14867+P18507). In words: Competition binding to HEK cell membranes, α1β3γ2.
Another assay deals with α6β3γ2 GABAA/BzR (Homo sapiens, UniProt P18507+Q16445). In words: Competition binding to HEK cell membranes, α6β3γ2.

Where two headings read alike, the source gives them in different places.

As usually defined, the Ki is a measure of affinity in units of concentration, obtained from inhibition or displacement. In the case of `Cc1nnc2n1-c1ccc(Br)cc1C(c1ccccc1F)=NC2` [JYI-64 (C17H12N4FBr)], the Ki on α2β3γ2 GABAA/BzR (read-out: Ki α2) turned out to be 1.11 nM; on α5β3γ2 GABAA/BzR (read-out: Ki α5) it was 0.87 nM; on α3β3γ2 GABAA/BzR (read-out: Ki α3), 0.62 nM; at α1β3γ2 GABAA/BzR (read-out: Ki α1) it was 0.305 nM; at α6β3γ2 GABAA/BzR (read-out: Ki α6), 5000 nM.
As to `COCc1c(C(=O)OC(C)C)ncc2[nH]c3ccc(OCc4ccccc4)cc3c12` [ABECARNIL, reference compound], the inhibition constant (Ki) on α2β3γ2 GABAA/BzR (Ki α2) stood at 15.3 nM; at α5β3γ2 GABAA/BzR (Ki α5), 6 nM; at α3β3γ2 GABAA/BzR (Ki α3), 7.5 nM; on α1β3γ2 GABAA/BzR (Ki α1), 12.4 nM; at α6β3γ2 GABAA/BzR (Ki α6) it was 1000 nM.
With `O=C(OCC(Cl)(Cl)Cl)c1ncn2c1CN=C(c1ccccc1)c1cc(Br)ccc1-2` [DM-II-33 (C20H13N3O2BrCl3)], the Ki on α2β3γ2 GABAA/BzR (read-out: Ki α2) turned out to be 85 nM; at α5β3γ2 GABAA/BzR (read-out: Ki α5), 26.2 nM; at α3β3γ2 GABAA/BzR (read-out: Ki α3), 11.6 nM; on α1β3γ2 GABAA/BzR (read-out: Ki α1), 88.6 nM; at α6β3γ2 GABAA/BzR (read-out: Ki α6) it was 5000 nM.
As to `COc1ccc(-n2nc3c4cc(Cl)ccc4[nH]cc-3c2=O)cc1` [PZII-028], the Ki at α5β3γ2 GABAA/BzR (read-out: Ki α5) worked out at 0.32 nM; on α3β3γ2 GABAA/BzR (read-out: Ki α3), 0.2 nM; on α1β3γ2 GABAA/BzR (read-out: Ki α1), 0.2 nM; at α6β3γ2 GABAA/BzR (read-out: Ki α6), 1.9 nM.
Consider `COc1ccc(-n2nc3c4ccc(OC)cc4[nH]cc-3c2=O)cc1` [PZII-029], for which the inhibition constant (Ki) at α5β3γ2 GABAA/BzR (read-out: Ki α5) was found to be 0.52 nM; on α3β3γ2 GABAA/BzR (read-out: Ki α3), 0.79 nM; at α1β3γ2 GABAA/BzR (read-out: Ki α1), 0.34 nM; on α6β3γ2 GABAA/BzR (read-out: Ki α6), 10 nM.
With `CC[C@H](C)OC(=O)c1cc2c(cn1)[nH]c1ccccc12` [CM-A50 (S)], the Ki came to 59 nM at α2β3γ2 GABAA/BzR (read-out: Ki α2); 144 nM on α5β3γ2 GABAA/BzR (read-out: Ki α5); 88 nM at α3β3γ2 GABAA/BzR (read-out: Ki α3); 17 nM at α1β3γ2 GABAA/BzR (read-out: Ki α1); 1000 nM on α6β3γ2 GABAA/BzR (read-out: Ki α6).
The matching figures for `C#Cc1ccc2c(c1)C(c1cccs1)=NCc1c(C(=O)OCC)ncn1-2` [JC221]: 49.4 nM, 7.75 nM, 182 nM, 106 nM and 362 nM.
On to `C#Cc1ccc2c(c1)C(=O)N(C)Cc1c(C(=O)OC(C)(C)C)ncn1-2` [RY-024], for which the inhibitory constant (Ki) came to 26.3 nM at α2β3γ2 GABAA/BzR (read-out: Ki α2); 0.4 nM at α5β3γ2 GABAA/BzR (read-out: Ki α5); 18.7 nM on α3β3γ2 GABAA/BzR (read-out: Ki α3); 26.9 nM at α1β3γ2 GABAA/BzR (read-out: Ki α1); 5.1 nM at α6β3γ2 GABAA/BzR (read-out: Ki α6).
For `CC(C)c1nc(-c2ncn3c2CN(C)C(=O)c2c(Cl)cccc2-3)no1` [FG8205, reference compound], the inhibitory constant (Ki) at α2β3γ2 GABAA/BzR (read-out: Ki α2) came out at 2.08 nM; on α5β3γ2 GABAA/BzR (read-out: Ki α5), 1.54 nM; at α3β3γ2 GABAA/BzR (read-out: Ki α3) it was 1.16 nM; on α1β3γ2 GABAA/BzR (read-out: Ki α1), 0.4 nM; at α6β3γ2 GABAA/BzR (read-out: Ki α6), 227 nM.
Consider `C#Cc1ccc2c(c1)C(=O)N(C)Cc1c(C(=O)OCCCCCOC(=O)c3ncn4c3CN(C)C(=O)c3cc(C#C)ccc3-4)ncn1-2` [compound 56, 1,5-Bis(8-acetyleno-5,6-dihydro-5-methyl-6-oxo-4H-imidazo[1,5a][1,4]benzodiazepine-3-carboxy) pentyl diester], for which the Ki came to 661 nM at α2β3γ2 GABAA/BzR (Ki α2); 5.4 nM on α5β3γ2 GABAA/BzR (Ki α5); 2670 nM on α3β3γ2 GABAA/BzR (Ki α3); 231 nM on α1β3γ2 GABAA/BzR (Ki α1); 54.2 nM at α6β3γ2 GABAA/BzR (Ki α6).
As to `CC[C@@H](C)OC(=O)c1cc2c(cn1)[nH]c1ccccc12` [CM-A49 (R)], the Ki on α2β3γ2 GABAA/BzR (read-out: Ki α2) is 32.5 nM; on α5β3γ2 GABAA/BzR (read-out: Ki α5) it was 69 nM; on α3β3γ2 GABAA/BzR (read-out: Ki α3), 43 nM; at α1β3γ2 GABAA/BzR (read-out: Ki α1) it was 7.7 nM; on α6β3γ2 GABAA/BzR (read-out: Ki α6), 1000 nM.
On the same counts, the results for `Cc1nnc2n1-c1ccc(Br)cc1C(c1ccccc1F)=NC2` [JYI-64] are 1.11 nM, 0.87 nM, 0.62 nM, 0.305 nM and 5000 nM.
As to `C#Cc1ccc2c(c1)C(=O)N1CCC1c1c(-c3ocnc3C(=O)OCC)ncn1-2` (centres unmarked) [RY-069], the Ki at α2β3γ2 GABAA/BzR (Ki α2) came to 622 nM; on α5β3γ2 GABAA/BzR (Ki α5), 19 nM; on α3β3γ2 GABAA/BzR (Ki α3) it was 506 nM; on α1β3γ2 GABAA/BzR (Ki α1), 692 nM; on α6β3γ2 GABAA/BzR (Ki α6) it was 1000 nM.
With `CCC(C)OC(=O)c1cc2c(cn1)[nH]c1ccccc12` (centres unmarked) [CM-A64], the Ki on α2β3γ2 GABAA/BzR (read-out: Ki α2) is 60 nM; on α5β3γ2 GABAA/BzR (read-out: Ki α5), 216 nM; at α3β3γ2 GABAA/BzR (read-out: Ki α3), 116 nM; on α1β3γ2 GABAA/BzR (read-out: Ki α1) it was 18 nM; at α6β3γ2 GABAA/BzR (read-out: Ki α6) it was 1000 nM.
Take `COCc1ncn2c1CN(C)C(=O)c1cc(Cl)ccc1-2` [SH-TSC-1]: the inhibition constant (Ki) at α2β3γ2 GABAA/BzR (read-out: Ki α2) was found to be 180 nM; on α5β3γ2 GABAA/BzR (read-out: Ki α5), 6.18 nM; at α3β3γ2 GABAA/BzR (read-out: Ki α3) it was 328 nM; at α1β3γ2 GABAA/BzR (read-out: Ki α1), 362 nM.
Regarding `CN1Cc2c(C(=O)OC(C)(C)C)ncn2-c2ccc(O)cc2C1=O` [DM-239], the Ki on α5β3γ2 GABAA/BzR (read-out: Ki α5) was 0.14 nM; at α3β3γ2 GABAA/BzR (read-out: Ki α3), 0.53 nM; at α1β3γ2 GABAA/BzR (read-out: Ki α1), 1.5 nM; at α6β3γ2 GABAA/BzR (read-out: Ki α6) it was 6.89 nM.
As for `C#Cc1ccc2c(c1)C(c1ccccc1F)=NCC(=O)N2` [JYI-60 (C17H11N2OF)], the Ki is 1.7 nM on α5β3γ2 GABAA/BzR (read-out: Ki α5), 4.3 nM at α3β3γ2 GABAA/BzR (read-out: Ki α3) and 5000 nM at α6β3γ2 GABAA/BzR (read-out: Ki α6).
On to `O=C(O)c1ncn2c1CN=C(c1ccccc1F)c1cc(Br)ccc1-2` [JYI-47], for which the Ki was determined as 2.28 nM at α2β3γ2 GABAA/BzR (read-out: Ki α2), 0.427 nM on α5β3γ2 GABAA/BzR (read-out: Ki α5), 0.511 nM on α3β3γ2 GABAA/BzR (read-out: Ki α3) and 2.76 nM on α1β3γ2 GABAA/BzR (read-out: Ki α1).
